From patent publication US20140186329A1, “POLYPHENOL ANALOGS TO TREAT ISCHEMIA” (priority 2011, published 2014)
Read-outs that look alike come from different tables or passages of the source.

How the values were obtained:
HT22 cells [1] = assay: In vitro ischemia assay (HT22 cell IAA assay, MTT); format: cell-based, mouse
Description: Cell viability was determined by a modified version of 3-(4,5-dimethylthiazol-2-yl)-2,5-diphenyl tetrazolium bromide (MTT) assay based on the standard procedure (Maher, et al., Brain Research. (2007), supra). Cells were seeded onto 96-well microtiter plates at a density of 5×10^3 cells per well. For the in vitro ischemia assay, the next day, the medium was replaced with DMEM supplemented with 7.5% DFCS and the cells were treated with 20 μM iodoacetic acid (IAA) alone or in the presence of the different derivatives. After 2 hr the medium in each well was aspirated and replaced with fresh medium without IAA but containing the derivatives. 20 hr later, the medium in each well was aspirated and replaced with fresh medium containing 2.5 μg/ml MTT. After 4 hr of incubation at 37° C., the cells were solubilized with 100 μl of a solution containing 50% dimethylformamide and 20% SDS (pH 4.7). The absorbance at 570 nm was measured on the following day with a microplate reader (Molecular Devices). Results were confirmed by visual inspection of the wells. Controls included compound alone to test for toxicity and compound with no cells to test for interference with the assay chemistry.
For a primary screen, an in vitro ischemia model in combination with the HT22 nerve cell line (Maher, et al., Brain Research. (2007) 1173, 117-125) was chosen. […] To induce ischemia in the HT22 cells we used iodoacetic acid (IAA), a well-known, irreversible inhibitor of the glycolytic enzyme glyceraldehyde 3-phosphate dehydrogenase (G3PDH) (Winkler, et al., Exp. Eye Res. (2003) 76, 715-723). IAA has been used in a number of other studies to induce ischemia in nerve cells (Reshef, et al., Neurosci. Lett. (1997) 238, 37-40; Sperling, et al., Neursci. Lett. (2003) 351, 137-140; Rego, et al., Neurochem. Res. (1999) 24, 351-358; Sigalov, et al., J. Mol. Neurosci. (2000) 15, 147-154; and Reiner, et al., Neurosci. Lett. (1990) 119, 175-178), including several recent screens for neuroprotective molecules (Biraboneye, et al., J. Med. Chem. (2009) 52 (14), 4358-4369; Biraboneye, et al., Chem. Med. Chem. (2010) 5 (1), 79-85). The changes following IAA treatment of neural cells are very similar to those seen in animal models of ischemic stroke (Lipton, et al., Physiol. Rev. (1999) 79, 1431-1568) and include alterations in membrane potential (Reiner, et al., Neurosci. Lett. (1990) 119, 175-178), breakdown of phospholipids (Taylor, et al., J. Pharmacol. Exp. Ther. (1996) 276, 1224-1231), loss of ATP (Winkler, et al., Exp. Eye Res. (2003) 76, 715-723; Sperling, et al., Neursci. Lett. (2003) 351, 137-140) and an increase in reactive oxygen species (ROS) (Taylor, et al., J. Pharmacol. Exp. Ther. (1996), supra; and Sperling, et al., Neursci. Lett. (2003) 351, 137-140).
(§1) Cell viability was determined after 24 hr by the MTT assay. The ability to maintain GSH (GSH) was determined by treating HT22 cells with different doses of each derivative (1-10 μM) in the presence of 5 mM glutamate. After 24 hr cell extracts were prepared and analyzed for total GSH. Fisetin (10 μM) was used as a positive control. The ability to induce PC12 cell differentiation (PC 12 diff' n) was determined by treating PC12 cells in N2 medium with different doses of each derivative (1-10 μM) for 24 hr. Differentiation was assessed by visual inspection with Fisetin (10 μM) as a positive control. Anti-inflammatory activity (microglia) was assessed in N9 microglial cells treated with bacterial lipopolysaccharide alone or in the presence different doses of each derivative (1-10 μM) for 24 hr. Fisetin was used as a positive control. TEAC values, a measure of direct antioxidant activity, were determined using the ABTS decolorization assay.
For rapid screening of chemical libraries, a mouse HT22 hippocampal cell death assay induced by addition of the compound iodoacetic acid (IAA) was used. IAA is a well-known, irreversible inhibitor of the glycolytic enzyme glyceraldehyde 3-phosphate dehydrogenase (G3PDH). […]

HT22 cells [2] = assay: Maintenance of total GSH in the presence of glutamate; format: cell-based, mouse; details: derivative 1-10 μM, 5 mM glutamate, 24 hr
Description: Total intracellular glutathione was determined by a chemical assay as described (Maher, P. et al., Free Radical Research. (2006) 40 (10), 1105-1111).
(§2) Three secondary screens allowed assessment of three key activities of Fisetin that are highly relevant to stroke, as well as other neurological disorders: maintenance of glutathione (GSH), the major endogenous cellular antioxidant, inhibition of LPS-induced microglial activation, an indicator of anti-inflammatory activity and PC 12 cell differentiation, a measure of neurotrophic activity. All of these activities are relevant to the nerve cell loss seen in stroke (Gelderblom, et al., Stroke. 2009, 40 (5), 1849-1857; Pandya, et al., Cent. Nerv. Syst. Agents. Med. Chem. (2011) April 27; Lewerenz, et al., J. Neurochem. (2010) 113 (2), 502-504). […] To assess GSH maintenance, total intracellular GSH levels after a 24 hr treatment with the compound both in the absence and presence of glutamate, an inducer of GSH loss and oxidative stress (Tan, et al., Curr. Top. Med. Chem. (2001) 1, 497-506; Maher, et al., Free Radical Research. (2006) 40 (10), 1105-1111) was measured. Inhibition of LPS-induced microglial activation was determined by treating N9 mouse microglial cells with LPS alone and in the presence of the compounds and assaying NO release into the medium 24 hr later (Zheng, et al., Int. Immunopharmacol. (2008) 8, (3), 484-494). PC12 cell differentiation was determined by treating PC12 cells with the compounds and looking at neurite outgrowth after 24 hr. In all cases, Fisetin was used as a positive control (Sagara, et al., J. Neurochem. (2004) 90, 1144-1155).
as §1

PC12 cells = assay: PC12 cell differentiation (neurite outgrowth); format: cell-based; details: N2 medium, derivative 1-10 μM, 24 hr, visual inspection
Description: PC 12 cells in N2 medium were treated with the derivatives (1-10 μM) or Fisetin (10 μM) as a positive control for 24 hr at which time the cells were scored for the presence of neurites. PC12 cells produce neurites much more rapidly when treated in N2 medium than when treated in regular growth medium. For each treatment, 100 cells in each of three separate fields were counted. Cells were scored positive if one or more neurites>1 cell body diameter in length were observed.
as §2, §1

[3] = TEAC, ABTS decolorization assay; details: relative to Trolox
Description: TEAC values for the flavonoids were determined as described (Maher, P. et al., Free Radical Research. (2006), supra). Briefly, 250 μl of 2,2′-azinobis(3-ethylbenzothiazoline 6-sulfonate) (ABTS) treated overnight with potassium persulfate and diluted to an OD of ˜0.7 at 734 nm was added to 2.5 μl of a derivative solution in ethanol. The change in absorbance due to the reduction of the ABTS radical cation was measured at 734 nm for 4 min. To calculate the TEAC, the gradient of the plot of the percentage inhibition of absorbance vs. concentration for the derivative in question was divided by the gradient of the plot for Trolox.
as §1

[4] = Mus musculus, HT-22, HT22 cells, 20 μM IAA for 2 hr, viability after 24 hr by MTT, read-out: EC50 in vitro ischemia
[5] = HT22 cells, 20 μM IAA for 2 hr, viability after 24 hr by MTT
[6] = Mus musculus, HT-22, HT22 cells, 20 μM IAA, read-out: HT22 Cell IAA assay EC50

Structure (SMILES) | EC50 (HT22 cells [1]; [4]) [µM] | fold enhancement of neuroprotective activity relative to CMS-027 (HT22 cells [1]; in vitro ischemia, HT22/IAA) [fold] | GSH (ability to maintain GSH) (HT22 cells [2]) | PC12 diff'n (ability to induce PC12 cell differentiation) (PC12 cells) | TEAC [3] | EC50 in vitro ischemia (μM) (HT22 cells [1]; [5]) | EC50 (HT22 cells [1]; HT22 cells, 20 μM IAA, read-out: HT22 Cell IAA assay EC50) [µM] | EC50 (HT22 cells [1]; [6]) [µM]
Cc1cc2oc(-c3ccc(O)c(O)c3)cc(=O)c2cc1C [CMS-028, 2-(3,4-dihydroxyphenyl)-6,7-dimethyl-4H-chromen-4-one] | 0.25 | 2 | no | no | 0.27 | – | – | –
CCOc1ccc(/C=C/C(=O)c2ccc3ccccc3c2O)cc1OCC [CMS-032, (E)-3-(3,4-diethoxyphenyl)-1-(1-hydroxynaphthalen-2-yl)prop-2-en-1-one] | – | – | no | no | 0.12 | no | – | –
CCOc1ccc(-c2oc3c(ccc4ccccc43)c(=O)c2O)cc1OCC [CMS-036, 2-(3,4-diethoxyphenyl)-3-hydroxy-4H-benzo[h]chromen-4-one] | 0.3 | – | no | no | 0.15 | – | – | –
CCOc1ccc(-c2cc(=O)c3ccc4ccccc4c3o2)cc1OCC [CMS-038, 2-(3,4-diethoxyphenyl)-4H-benzo[h]chromen-4-one] | – | – | no | no | 0.2 | no | – | –
O=c1c(O)c(-c2ccc(O)c(O)c2)oc2ccc3ccccc3c12 [CMS-041, 3-(3,4-dihydroxyphenyl)-2-hydroxy-1H-benzo[h]chromen-1-one] | 0.25 | – | no | yes | 1.26 | – | – | –
COc1cc(-c2cc(=O)c3cc(C)c(C)cc3o2)ccc1OCc1ccccc1 [CMS-058, 2-(4-(benzyloxy)-3-methoxyphenyl)-6,7-dimethyl-4H-chromen-4-one] | 0.5 | – | no | no | 0.09 | – | – | –
COc1cc(/C=C/C(=O)c2ccc3ccccc3c2O)ccc1OCc1ccccc1 [CMS-063, (E)-3-(4-(benzyloxy)-3-methoxyphenyl)-1-(1-hydroxynaphthalen-2-yl)prop-2-en-1-one] | 0.5 | – | no | no | 0.15 | – | – | –
COc1cc(-c2cc(=O)c3cc(C)c(C)cc3o2)ccc1O [CMS-064, 2-(4-hydroxy-3-methoxyphenyl)-6,7-dimethyl-4H-chromen-4-one] | 0.03 | – | no | no | 0.12 | – | 0.034 | < 0.04
COc1cc(-c2oc3c(ccc4ccccc43)c(=O)c2O)ccc1OCc1ccccc1 [CMS-065, 2-(4-(benzyloxy)-3-methoxyphenyl)-3-hydroxy-4H-benzo[h]chromen-4-one] | 0.08 | – | no | yes | 0 | – | – | 0.081
COc1cc(-c2oc3c(ccc4ccccc43)c(=O)c2O)ccc1O [CMS-070, 3-hydroxy-2-(4-hydroxy-3-methoxyphenyl)-4H-benzo[h]chromen-4-one] | > 0.5 | – | no | yes | 0.63 | – | – | –
COc1cc(-c2ccc(O)cc2O)nc2ccccc12 [CMS-083, 4-methoxy-2-(2,4-dihydroxyphenyl) quinoline] | > 0.5 | – | no | no | 0.05 | – | – | –
CC(C)Oc1cc(-c2ccc(O)cc2O)nc2ccccc12 [CMS-084, 4-isopropoxy-2-(2,4-dihydroxyphenyl) quinoline] | 0.21 | – | no | no | 0.27 | – | – | 0.21
Cc1cc(O)c(C(=O)/C=C/c2ccc(O)cc2O)cc1C [CMS-087, (E)-3-(2,4-dihydroxyphenyl)-1-(2-hydroxy-4,5-dimethylphenyl)prop-2-en-1-one] | 0.05 | – | no | yes | 0.93 | – | – | –
COc1ccc(/C=C/C(=O)c2cc(C)c(C)cc2O)cc1O [CMS-088, (E)-1-(2-hydroxy-4,5-dimethylphenyl)-3-(3-hydroxy-4-methoxyphenyl)prop-2-en-1-one] | 0.2 | – | no | no | 0.12 | – | – | –
